This note sets out measurements from PubChem BioAssay (NCI).

Some test systems named below: OVCAR-3 ovarian; SN12C renal; SK-OV-3 ovarian; EKVX NSCLC; SW-620 colon; CAKI-1 renal; HCT-15 colon; CCRF-CEM leukemia.
What all share (assay): inhibition of tumour cell growth, NCI panel, 48 h

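Step 1: Grow cells in 96-well plates. Step 2: Expose to compound for 48 hours at 5 concentrations. Step 3: Interpolate endpoints linearly; if unreached, use highest concentration. GI50 is the concentration that inhibits growth by half. At the TGI there is no net growth.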

With `COC(=O)C(=O)C(C(=O)C(=O)Nc1ccc(C)cc1C)c1nc2ccccc2[nH]c1=O` (stereo unspecified), the TGI is > 100 µM in the assay with OVCAR-3 ovarian; > 100 µM in the assay on SN12C renal; > 100 µM in the assay on SK-OV-3 ovarian; > 100 µM with EKVX NSCLC; > 100 µM in the assay on SW-620 colon; 68.9 µM in the assay on CAKI-1 renal. In addition, the TGI in the assay with HCT-15 colon and with CCRF-CEM leukemia was > 100 µM throughout.

With `COc1ccc(/C(=N/Nc2ccc([N+](=O)[O-])cc2)Sc2cc(Cl)c(C)cc2S(N)(=O)=O)cc1`, the GI50 in the assay with OVCAR-3 ovarian is 2.52 µM; with SN12C renal, 2.2 µM; in the assay with SK-OV-3 ovarian it was 5.89 µM; in the assay on EKVX NSCLC, 3.34 µM; in the assay with SW-620 colon it was 5.86 µM; in the assay with CAKI-1 renal, 4.44 µM. Further, the figures for the GI50 in the assay on HCT-15 colon and in the assay with CCRF-CEM leukemia were 7.25 µM and 6.45 µM, respectively. Moreover, the TGI turned out to be 7.4 µM in the assay with OVCAR-3 ovarian; 4.29 µM in the assay with SN12C renal; 12.7 µM in the assay on SK-OV-3 ovarian; 10.9 µM in the assay on EKVX NSCLC; 18.2 µM in the assay with SW-620 colon; 9.47 µM in the assay with CAKI-1 renal. The TGI is > 40.8 µM with HCT-15 colon and 33.9 µM in the assay on CCRF-CEM leukemia.

For `COc1cc([N+](=O)[O-])ccc1NC(=O)C(F)(F)F`, the TGI with OVCAR-3 ovarian, with SN12C renal, in the assay on SK-OV-3 ovarian, in the assay with EKVX NSCLC, in the assay on SW-620 colon and with CAKI-1 renal was > 100 µM throughout. Also, the TGI in the assay on HCT-15 colon and in the assay with CCRF-CEM leukemia was > 100 µM each time.

With `COc1cc2c3c(n(CCCCl)c(=O)c2cc1OC)-c1ccccc1C3=O`, the GI50 in the assay with OVCAR-3 ovarian was 10.6 µM; with SN12C renal it was > 100 µM; in the assay on SK-OV-3 ovarian, > 100 µM; in the assay on EKVX NSCLC it was > 100 µM; in the assay on CAKI-1 renal, 1.44 µM; in the assay on HCT-15 colon it was > 100 µM. In addition, in the assay with CCRF-CEM leukemia, the GI50 is 0.71 µM. Besides, the TGI with OVCAR-3 ovarian is 54.8 µM; in the assay with SN12C renal, > 100 µM; in the assay on SK-OV-3 ovarian, > 100 µM; with EKVX NSCLC, > 100 µM; in the assay on CAKI-1 renal, 7.6 µM; in the assay on HCT-15 colon, > 100 µM. In addition, in the assay with CCRF-CEM leukemia, the TGI is > 100 µM.

In the case of `COc1cc2c3c(n(CCCBr)c(=O)c2cc1OC)-c1ccc(NC(C)=O)cc1C3=O`, the GI50 in the assay on OVCAR-3 ovarian was 4.37 µM; in the assay on SN12C renal, 13.9 µM; with SK-OV-3 ovarian, 2.28 µM; with EKVX NSCLC it was 47.8 µM; with SW-620 colon, 0.963 µM; in the assay on CAKI-1 renal, 1.09 µM. The GI50 in the assay on HCT-15 colon is 30.8 µM; in the assay with CCRF-CEM leukemia it was 1.44 µM. For the same compound, the TGI in the assay with OVCAR-3 ovarian is 24.9 µM; in the assay on SN12C renal it was > 100 µM; in the assay on SK-OV-3 ovarian, 10.6 µM; in the assay with EKVX NSCLC, > 100 µM; with SW-620 colon, > 100 µM; with CAKI-1 renal, 7.21 µM. In addition, the TGI in the assay on HCT-15 colon is > 100 µM; in the assay with CCRF-CEM leukemia, 19.1 µM.

Take `O=C(O)c1cc(N=Nc2ccc([As](=O)(O)O)cc2)ccc1O`: the TGI with OVCAR-3 ovarian, in the assay on SN12C renal, in the assay on SK-OV-3 ovarian, in the assay with EKVX NSCLC, in the assay with SW-620 colon and in the assay on CAKI-1 renal was > 100 µM throughout. The TGI in the assay with HCT-15 colon and with CCRF-CEM leukemia was > 100 µM each time.

For `CCCNC(=S)N/N=C(\C)c1ccccn1`, the GI50 was < 0.01 µM in the assay with OVCAR-3 ovarian; 0.268 µM in the assay on SN12C renal; 0.615 µM in the assay with SK-OV-3 ovarian; 0.119 µM in the assay on EKVX NSCLC; 0.0498 µM with SW-620 colon; 0.22 µM with CAKI-1 renal. Also, the GI50 with HCT-15 colon is 0.0514 µM; in the assay on CCRF-CEM leukemia, 0.018 µM. Also, the TGI is > 100 µM in the assay on OVCAR-3 ovarian; > 100 µM in the assay with SN12C renal; > 100 µM with SK-OV-3 ovarian; > 100 µM with EKVX NSCLC; > 100 µM in the assay on SW-620 colon; > 80.7 µM in the assay with CAKI-1 renal. The TGI in the assay on HCT-15 colon and with CCRF-CEM leukemia was > 100 µM each time.

Regarding `CC(C)(C)OC(=O)N(CCCN(CCn1c2c(c3ccccc3c1=O)C(=O)c1ccccc1-2)C(=O)OC(C)(C)C)CCn1c2c(c3ccccc3c1=O)C(=O)c1ccccc1-2`, the GI50 with OVCAR-3 ovarian was 21.2 µM; in the assay on SN12C renal, > 50 µM; with SK-OV-3 ovarian, > 50 µM; in the assay with EKVX NSCLC, > 50 µM; with SW-620 colon it was 40.7 µM; in the assay with CAKI-1 renal, > 50 µM. The GI50 in the assay on HCT-15 colon is 31.1 µM; in the assay with CCRF-CEM leukemia, 13.3 µM. For the same compound, the TGI in the assay with OVCAR-3 ovarian, with SN12C renal, in the assay with SK-OV-3 ovarian, in the assay on EKVX NSCLC, in the assay with SW-620 colon and in the assay on CAKI-1 renal was > 50 µM each time. The TGI in the assay with HCT-15 colon and with CCRF-CEM leukemia was > 50 µM throughout.

As for `Cn1cc(-c2csc(-c3cccc(F)c3)n2)c2cccnc21`, the GI50 in the assay with OVCAR-3 ovarian was 19 µM; in the assay with SN12C renal, 15.6 µM; in the assay with SK-OV-3 ovarian it was 24.9 µM; in the assay with EKVX NSCLC it was 12.5 µM; in the assay on SW-620 colon it was 16.7 µM; in the assay with CAKI-1 renal it was 16.2 µM. Moreover, the GI50 in the assay on HCT-15 colon is 14 µM; in the assay on CCRF-CEM leukemia, 35.9 µM. The TGI in the assay on OVCAR-3 ovarian is 33.9 µM; in the assay on SN12C renal it was 29.5 µM; with SK-OV-3 ovarian, 62.2 µM; in the assay on EKVX NSCLC, 37.6 µM; with SW-620 colon, 30.5 µM; in the assay on CAKI-1 renal, 40.5 µM. Besides, the TGI in the assay on HCT-15 colon is 35.7 µM; with CCRF-CEM leukemia, > 100 µM.

For `COC(=O)[C@]12CCC(C)(C)C[C@H]1C1=CC[C@@H]3[C@@]4(C)C/C(=C/c5cccnc5)C(=O)C(C)(C)[C@@H]4CC[C@@]3(C)[C@]1(C)CC2`, the GI50 in the assay on OVCAR-3 ovarian is 4.16 µM; with SN12C renal, 4.86 µM; with SK-OV-3 ovarian it was 27.5 µM; in the assay on EKVX NSCLC, 10.9 µM; in the assay with SW-620 colon it was 5.74 µM; in the assay with CAKI-1 renal, 6.87 µM. Moreover, the GI50 in the assay on HCT-15 colon is 4.58 µM; in the assay with CCRF-CEM leukemia, 2.81 µM. For the same compound, the TGI is 27.9 µM in the assay on OVCAR-3 ovarian; 23.4 µM in the assay with SN12C renal; > 100 µM in the assay with SK-OV-3 ovarian; 31.1 µM in the assay with EKVX NSCLC; 33.3 µM with SW-620 colon; 22.3 µM in the assay with CAKI-1 renal. Moreover, the TGI in the assay on HCT-15 colon came to 30.5 µM; in the assay with CCRF-CEM leukemia, 13.7 µM.

Take `COc1cc([C@@H]2c3cc4c(cc3C(O[C@@H]3O[C@@H]5CO[C@@H](c6cccs6)OC5[C@H](O)[C@H]3O)C3COC(=O)[C@@H]32)OCO4)cc(OC)c1O` (stereo partly specified): the GI50 in the assay on OVCAR-3 ovarian is 0.248 µM; in the assay on SN12C renal it was 0.0272 µM; with SK-OV-3 ovarian, 0.102 µM; in the assay on EKVX NSCLC, 0.677 µM; in the assay with SW-620 colon it was 0.0603 µM; in the assay on CAKI-1 renal it was 0.0997 µM. Besides, the GI50 with HCT-15 colon is 0.499 µM; in the assay with CCRF-CEM leukemia, 0.00941 µM. In addition, the TGI with OVCAR-3 ovarian came to 1.19 µM; with SN12C renal, 5.68 µM; with SK-OV-3 ovarian it was 0.81 µM; in the assay on EKVX NSCLC it was 14.4 µM; in the assay with SW-620 colon it was 1.63 µM; in the assay on CAKI-1 renal, 6.98 µM. Besides, the TGI was 19.4 µM in the assay with HCT-15 colon and 0.175 µM in the assay with CCRF-CEM leukemia.

Consider `CC(=O)[O][Hg][c]1c(C)c(C)c(C)c(C)c1C`, for which the GI50 in the assay on OVCAR-3 ovarian is 1.82 µM; in the assay with SN12C renal it was 1.53 µM; in the assay with SK-OV-3 ovarian it was 2.69 µM; in the assay on EKVX NSCLC, 1.89 µM; with CAKI-1 renal, 3.02 µM; with HCT-15 colon, 1.38 µM. The GI50 in the assay on CCRF-CEM leukemia is 0.895 µM. Besides, the TGI in the assay on OVCAR-3 ovarian came out at 3.31 µM; with SN12C renal it was 2.97 µM; in the assay on SK-OV-3 ovarian, 6.04 µM; in the assay with EKVX NSCLC, 3.54 µM; in the assay with CAKI-1 renal, 7.69 µM; in the assay on HCT-15 colon, 2.93 µM. Besides, in the assay on CCRF-CEM leukemia, the TGI is 9.71 µM.

With `COc1cc(C(=O)O[C@H](C(N)=O)[C@]2(C)CO2)c2ccccc2c1`, the GI50 is 22.7 µM with OVCAR-3 ovarian; 14.3 µM in the assay with SK-OV-3 ovarian; 18 µM in the assay with EKVX NSCLC; 18.8 µM in the assay with SW-620 colon; 20.6 µM with CAKI-1 renal; 23.8 µM in the assay on HCT-15 colon. Moreover, the GI50 with CCRF-CEM leukemia is 10.9 µM. For the same compound, the TGI with OVCAR-3 ovarian was 45.2 µM; in the assay with SK-OV-3 ovarian, 28 µM; in the assay on EKVX NSCLC, 50 µM; in the assay on SW-620 colon, > 100 µM; in the assay with CAKI-1 renal, 39.8 µM; in the assay with HCT-15 colon, 70.6 µM. Besides, in the assay on CCRF-CEM leukemia, the TGI was 58 µM.

With `Cc1c2c(nn1-c1ccc(S(=O)(=O)/N=C3\SCC(=O)N3C(=O)c3ccccc3)cc1)-c1ccccc1CC2`, the GI50 was 15.8 µM in the assay with OVCAR-3 ovarian; 19.2 µM with SN12C renal; 40.5 µM with EKVX NSCLC; > 100 µM with SW-620 colon; 26.6 µM with CAKI-1 renal; 22.4 µM with HCT-15 colon. In the assay on CCRF-CEM leukemia, the GI50 was 21 µM. For the same compound, the TGI in the assay with OVCAR-3 ovarian is 39.1 µM; with SN12C renal, 45.8 µM; in the assay with EKVX NSCLC, 90.7 µM; in the assay on SW-620 colon, > 100 µM; in the assay with CAKI-1 renal, 65.9 µM; in the assay on HCT-15 colon, 49.5 µM. Also, the TGI in the assay on CCRF-CEM leukemia is 49 µM.

With `COc1ccc(C2CC(=O)c3c(O)c(OC)c(OC)c(OC)c3O2)c(O)c1` (stereo unspecified), the GI50 in the assay on SN12C renal is 1.23 µM; with SK-OV-3 ovarian, 0.308 µM; in the assay on EKVX NSCLC, 0.232 µM; in the assay on SW-620 colon it was 0.0484 µM; in the assay with CAKI-1 renal, 0.781 µM; in the assay on HCT-15 colon, 0.0498 µM. Moreover, the GI50 in the assay with CCRF-CEM leukemia is 0.134 µM. Moreover, the TGI amounted to 70.4 µM in the assay on SN12C renal; 24.8 µM in the assay on SK-OV-3 ovarian; 88.8 µM in the assay on EKVX NSCLC; 21.4 µM in the assay with SW-620 colon; 60.4 µM with CAKI-1 renal; 17.8 µM with HCT-15 colon. In the assay with CCRF-CEM leukemia, this compound had a TGI of 31.5 µM.
